The values below come from patent EP2951180B1, “2,6,7,8 SUBSTITUTED PURINES AS HDM2 INHIBITORS” (Merck Sharp & Dohme Corp., priority 2013, dated 2014).

Like-named read-outs stand apart in the source and are kept apart here.

The assay has as its target T1, HDM2 (Homo sapiens, UniProt Q00987).
T1 construct: Thioredoxin (N); made in house; host or cells: E. coli strain BL21(DE3)Rosetta
Kind of assay: HDM2 FRET assay (inhibition of binding of FITC labeled p53-pocket peptide to HDM2). Conditions: read-out: FRET IC50. The method, boiled down: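 TR-FRET with 0.5 nM His-tagged recombinant HDM2, 3 nM FITC-labelled p53 peptide and 0.25 nM Tb-anti-His antibody in PBS, 0.01% BSA, 0.01% Tween-20, 0.1% DMSO. IC50 from em520/em495 ratio over 10-point dilutions, 4-parameter logistic fit.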

[1] abbreviates: 0.5 nM HDM2 (residues 17 to 125), 3nM peptide, two hour incubation at room temperature.

T1 sequence (Q00987 17-125): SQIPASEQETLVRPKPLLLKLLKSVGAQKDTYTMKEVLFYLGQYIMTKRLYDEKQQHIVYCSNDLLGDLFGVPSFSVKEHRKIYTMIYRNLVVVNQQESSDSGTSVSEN

`Cc1cccc(-c2nc3nc(C(=O)O)nc(N[C@H](C)C4CC4)c3n2Cc2ccc(Br)cc2)c1` [Example 6.5, 7-(4-bromobenzyl)-6-{[(1R)-1-cyclopropylethyl]amino}-8-(3-methylphenyl)-7H-purine-2-carboxylic acid]: the IC50 (in general, the midpoint of a concentration-inhibition curve) (Table 6) came out at 234 nM.
Consider `C[C@@H](Nc1nc(-c2noc(=O)[nH]2)nc2nc(C3CCCCC3O)n(C[C@H]3CC[C@H](C)CC3)c12)C1CCC1` (stereo partly drawn) [Example 22.46, 3-(6-{[(1R)-1-cyclobutylethyl]amino}-8-(2-hydroxycyclohexyl)-7-[(trans-4-methylcyclohexyl)methyl] -7H-purin-2-yl)-1,2,4-oxadiazol-5(4H)-one], for which the concentration for half-maximal inhibition (IC50) (Table 22) amounted to 445 nM.
With `C[C@H]1OCCN(c2nc3nc(-c4noc(=O)[nH]4)nc(-c4cccc(Cl)c4)c3n2C[C@H]2CC[C@H](C)CC2)[C@@H]1c1ccccc1` [Example 16.127, 3-{6-(3-chlorophenyl)-7-[(trans-4-methylcyclohexyl)methyl]-8-[(2R,3R)-2-methyl-3-phenylmorpholin-4-yl]-7H-purin-2-yl}-1,2,4-oxadiazol-5(4H)-one], the IC50 under setting [1] stood at 1.06 nM.
As for `C[C@@H](Nc1nc(C(=O)O)nc2nc(NC(C)(C)c3ccccc3)n(Cc3ccc(C(F)(F)F)cc3)c12)C1CCC1` [Example 9.123, 6-{[(1R)-1-cyclobutylethyl]amino}-8-[(1-methyl-1-phenylethyl)amino]-7-[4-(trifluoromethyl)benzyl]-7H-purine-2-carboxylic acid], the 50% inhibitory concentration (IC50) (Table 9) was 1.85 nM.
As to `C[C@@H](Nc1nc(-c2noc(=O)[nH]2)nc2nc(C(C)(O)c3ccccn3)n(C[C@H]3CC[C@H](C)CC3)c12)C1CCC1` (single isomer, unassigned) [Example 22.6], the 50% inhibitory concentration (IC50) (Table 22) is 10.4 nM.
As to `C[C@@H](Nc1nc(-c2noc(=O)[nH]2)nc2nc(N3CCOC4CCCC43)n(C[C@H]3CC[C@H](C)CC3)c12)C1CCC1` (single isomer, unassigned) [Example 11.131], the IC50 (Table 11) worked out at 7.02 nM.
On to `C[C@@H](Nc1nc(-c2noc(=O)[nH]2)nc2nc(N3CCOCC3(C)C)n(Cc3ccc(C(F)(F)F)cc3)c12)C1CCC1` [Example 9.88, 3-(6-{[(1R)-1-cyclobutylethyl]amino}-8-(3,3-dimethylmorpholin-4-yl)-7-[4-(trifluoromethyl)benzyl]-7H-purin-2-yl)-1,2,4-oxadiazol-5(4H)-one], for which the IC50 (Table 9) was 12.2 nM.
For the molecule `C[C@@H](Nc1nc(-c2noc(=O)[nH]2)nc2nc(N3CCCC[C@H]3c3ccccc3)n(C[C@H]3CC[C@H](C)CC3)c12)C1CCC1` [Example 11.15, 3-(6-{[(1R)-1-cyclobutylethyl]amino}-7-[(trans-4-methylcyclohexyl)methyl]-8-[(2S)-2-phenylpiperidin-1-yl]-7H-purin-2-yl)-1,2,4-oxadiazol-5(4H)-one], the half-maximal inhibitory concentration (IC50) (Table 11) came to 2.81 nM.
On to `CC(C)c1ccnc(-c2nc3nc(-c4noc(=O)[nH]4)nc(N[C@H](C)C4CCC4)c3n2C[C@H]2CC[C@H](C(F)(F)F)CC2)c1` [Example 18.30, 3-(6-{[(1R)-1-cyclobutylethyl]amino}-8-[4-(1-methylethyl)pyridin-2-yl]-7-{[trans-4-(trifluoromethyl)cyclohexyl]methyl}-7H-purin-2-yl)-1,2,4-oxadiazol-5(4H)-one], for which the IC50 (Table 18) was found to be 13 nM.
In the case of `C[C@@H](Nc1nc(-c2noc(=O)[nH]2)nc2nc(C3CC3)n(C[C@H]3CC[C@H](C)CC3)c12)C1CCC1` [Example 21.27, 3-(6-{[(1R)-1-cyclobutylethyl]amino}-8-cyclopropyl-7-[(trans-4-methylcyclohexyl)methyl]-7H-purin-2-yl)-1,2,4-oxadiazol-5(4H)-one], the 50% inhibitory concentration (IC50) (Table 21) came to 18 nM.
Turning to `CCCC(CCC)Nc1nc(C(=O)O)nc2nc(-c3cccc(C)c3)n(Cc3ccc(C(F)(F)F)cc3)c12` [Example 6.64, 8-(3-methylphenyl)-6-[(1-propylbutyl)amino]-7-[4-(trifluoromethyl)benzyl]-7H-purine-2-carboxylic acid], the 50% inhibitory concentration (IC50) (Table 6) is 920 nM.
Take `C[C@H]1CC[C@H](Cn2c(N3CCOC[C@H]3c3ccccc3)nc3nc(-c4noc(=O)[nH]4)nc(-c4ccccc4)c32)CC1` [Example 16.12, 3-(7-(((trans)-4-methylcyclohexyl)methyl)-6-phenyl-8-((R)-3-phenylmorpholino)-7H-purin-2-yl)-1,2,4-oxadiazol-5(4H)-one]: the 50% inhibitory concentration (IC50) under setting [1] came out at 10.1 nM.
In the case of `C[C@@H](Nc1nc(C(=O)O)nc2nc(N(C)C(=O)C3CCCCC3)n(Cc3ccc(C(F)(F)F)cc3)c12)C1CCC1` [Example 10.4, (R)-6-((1-cyclobutylethyl)amino)-8-(N-methylcyclohexanecarboxamido)-7-(4-(trifluoromethyl)benzyl)-7H-purine-2-carboxylic acid], where the note is “Table 10”, the IC50 is 14.1 nM.
Regarding `C[C@@H](Nc1nc(-c2noc(=O)[nH]2)nc2nc(N3CCC[C@H]3CF)n(C[C@H]3CC[C@H](C)CC3)c12)C1CCC1` [Example 11.8, 3-(6-{[(1R)-1-cyclobutylethyl]amino}-8-[(2S)-2-(fluoromethyl)pyrrolidin-1-yl]-7-[(trans-4-methylcyclohexyl)methyl]-7H-purin-2-yl)-1,2,4-oxadiazol-5(4H)-one], the IC50 (Table 11) came to 2.36 nM.
With `C[C@H]1CC[C@H](Cn2c(N3CCC4OCCC43)nc3nc(-c4noc(=O)[nH]4)nc(-c4cccc(Cl)c4)c32)CC1` (relative stereo) [Example 16.150, 3-{6-(3-chlorophenyl)-8-(hexahydro-4H-furo[3,2-b]pyrrol-4-yl)-7-[(trans-4-methylcyclohexyl)methyl]-7H-purin-2-yl}-1,2,4-oxadiazol-5(4H)-one], under setting [1], the IC50 stood at 45 nM.
Consider `C[C@@H](Nc1nc(C(=O)O)nc2nc(N(C)C3CCCCC3)n(Cc3ccc(C(F)(F)F)cc3)c12)C1CCC1` [Example 9.15, 6-{[(1R)-1-cyclobutylethyl]amino}-8-[cyclohexyl(methyl)amino]-7-[4-(trifluoromethyl)benzyl]-7H-purine-2-carboxylic acid], for which the 50% inhibitory concentration (IC50) (Table 9) amounted to 7.4 nM.
`C[C@@H](Nc1nc(-c2noc(=O)[nH]2)nc2nc(N3CCCCC3c3ccccc3)n(Cc3ccc(C(F)(F)F)cc3)c12)C1CCC1` (stereo partly drawn) [Example 9.67, 3-(6-{[(1R)-1-cyclobutylethyl]amino}-8-(2-phenylpiperidin-1-yl)-7-[4-(trifluoromethyl)benzyl]-7H-purin-2-yl)-1,2,4-oxadiazol-5(4H)-one]: the half-inhibitory concentration (IC50) (Table 9) was determined as 12.7 nM.
For `C[C@@H](Nc1nc(-c2noc(=O)[nH]2)nc2nc(N3CCOCC3c3ccc(Cl)cc3)n(C[C@H]3CC[C@H](C)CC3)c12)C1CCC1` (stereo partly drawn) [Example 11.119, 3-{8-[3-(4-chlorophenyl)morpholin-4-yl]-6-{[(1R)-1-cyclobutylethyl]amino}-7-[(trans-4-methylcyclohexyl)methyl]-7H-purin-2-yl}-1,2,4-oxadiazol-5(4H)-one], the half-inhibitory concentration (IC50) (Table 11) worked out at 24.8 nM.
Take `C[C@@H](Nc1nc(C(=O)O)nc2nc(C(=O)NCC3CC3)n(Cc3ccc(C(F)(F)F)cc3)c12)C1CCC1` [Example 10.17, (R)-6-((1-Cyclobutylethyl)amino)-8-((cyclopropylmethyl)carbamoyl)-7-(4-(trifluoromethyl)benzyl)-7H-purine-2-carboxylic acid]: under “Table 10”, the IC50 was found to be 67.7 nM.
On to `CC(Nc1nc2nc(C(=O)O)nc(N[C@H](C)C3CCC3)c2n1Cc1ccc(C(F)(F)F)cc1)c1ccccn1` (stereo partly drawn) [Example 9.31, 6-{[(1R)-1-cyclobutylethyl]amino}-8-[(1-pyridin-2-ylethyl)amino]-7-[4-(trifluoromethyl)benzyl]-7H-purine-2-carboxylic acid], for which the IC50 (Table 9) was 0.526 nM.
As for `C[C@@H](Nc1nc(-c2noc(=O)[nH]2)nc2nc(C(O)C3CCCC3)n(C[C@H]3CC[C@H](C)CC3)c12)C1CCC1` (stereo partly drawn) [Example 22.47, 3-(6-{[(1R)-1-cyclobutylethyl]amino}-8-[cyclopentyl(hydroxy)methyl]-7-[(trans-4-methylcyclohexyl)methyl] -7H-purin-2-yl)-1,2,4-oxadiazol-5(4H)-one], for the setting “Table 22”, the IC50 was found to be 5.04 nM.
On to `Cc1cccc(-c2nc3nc(C(=O)O)nc(OCC4CC4)c3n2Cc2ccc(C(F)(F)F)cc2)c1` [Example 17.2, 6-(cyclopropylmethoxy)-8-(3-methylphenyl)-7-[4-(trifluoromethyl)benzyl]-7H-purine-2-carboxylic acid], for which the IC50 under setting [1] came out at 814 nM.
Turning to `CC1CCN(c2nc3nc(-c4noc(=O)[nH]4)nc(N[C@H](C)C4CCC4)c3n2C[C@H]2CC[C@H](C)CC2)C(c2ccccc2)C1` (single isomer, unassigned) [Example 11.69], the half-inhibitory concentration (IC50) (Table 11) was 17.3 nM.
Turning to `C[C@@H](Nc1nc(C(=O)O)nc2nc(N(C)[C@@H](C)c3ccccc3)n(Cc3ccc(C(F)(F)F)cc3)c12)C1CCC1` [Example 9.37, 6-{[(1R)-1-cyclobutylethyl]amino}-8-{methyl[(1S)-1-phenylethyl]amino}-7-[4-(trifluoromethyl)benzyl]-7H-purine-2-carboxylic acid], the IC50 (Table 9) was 21.6 nM.
Regarding `CC[C@H](Nc1nc2nc(-c3noc(=O)[nH]3)nc(-c3cccc(Cl)c3)c2n1C[C@H]1CC[C@H](C)CC1)c1cccc(F)c1` [Example 16.64, 3-{6-(3-chlorophenyl)-8-{[(1S)-1-(3-fluorophenyl)propyl]amino}-7-[(trans-4-methylcyclohexyl)methyl]-7H-purin-2-yl}-1,2,4-oxadiazol-5(4H)-one], the IC50 under setting [1] was found to be 3.16 nM.
Turning to `C[C@@H](Nc1nc(-c2noc(=O)[nH]2)nc2nc(N3CCCCC3C3CCCCC3)n(C[C@H]3CC[C@H](C)CC3)c12)C1CCC1` (stereo partly drawn) [Example 11.5, 3-(6-(((R)-1-cyclobutylethyl)amino)-8-(2-cyclohexylpiperidin-1-yl)-7-((trans-4-methylcyclohexyl)methyl)-7H-purine-2-yl)-1,2,4-oxadiazol-5(4H)-one], the IC50 (Table 11) is 450 nM.
